Reference: US10294234B2, “HIV inhibitor compounds” (priority 2017, dated 2019)
Read-outs that look alike come from different tables or passages of the source.

Legend:
[1] = In short: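 Test compounds at 1 uM incubated in duplicate with dog, rat and human liver microsomes (0.5 mg/mL protein) plus NADPH-regenerating system; sampled at 2, 12, 25, 45 and 65 minutes. Parent remaining monitored by LC/MS/MS; Clint calculated from in vitro t1/2.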
[2] = tested on: HIV-1 (IIIB) in MT-4 cells; test: MT-4 HIV assay; assay type: cell-based; details: Human immunodeficiency virus 1, MT4, 120 h; HIV-1 (IIIB), MT-4 cells, 5 days, Cell Titer Glo; read-out: EC50
In short: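 MT-4 cells infected with HIV-1 IIIB (1:250 stock dilution) were incubated with 1:3 serially diluted compounds in RPMI with 10% FBS for 5 days at 37 °C. Cell Titer Glo luminescence was the readout. Plates included mock-infected wells, no-drug wells and 5 uM AZT controls.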

[3] = human liver microsomes 0.5 mg/mL, 1 uM compound, NADPH
[4] = rat liver microsomes 0.5 mg/mL, 1 uM compound, NADPH

Row | Structure (SMILES) | Human Pred Cl. [1, 3] | Rat. Pred. Cl. [1, 4] | EC50 [2] | Human Pred Cl. ([1]; human, microsomes) | Rat. Pred. Cl. ([1]; rat, microsomes)
1 | COC(=O)N[C@H](C(=O)N[C@@H](Cc1ccc(C#Cc2ccc(N3C4CCC3CN(C3COC3)C4)nc2)cc1)[C@@H](O)CN(Cc1c(F)cc(-c2cnn(C(F)F)c2)cc1F)NC(=O)[C@@H](NC(=O)OC)C(C)(C)C(F)(F)F)C(C)(C)C(F)(F)F [Example 19, methyl ((5S,8S,9S,14S)-11-(4-(1-(difluoromethyl)-1H-pyrazol-4-yl)-2,6-difluorobenzyl)-16,16,16-trifluoro-9-hydroxy-15,15-dimethyl-8-(4-((6-(3-(oxetan-3-yl)-3,8-diazabicyclo[3.2.1]octan-8-yl)pyridin-3-yl)ethynyl)benzyl)-3,6,13-trioxo-5-(1,1,1-trifluoro-2-methylpropan-2-yl)-2-oxa-4,7,11,12-tetraazahexadecan-14-yl)carbamate] | – | – | 8.43 nM | <0.11 L/H/kg | 0.29 L/H/kg
2 | COC(=O)N[C@H](C(=O)N[C@@H](Cc1ccc(C#Cc2cnc(N3CC4CCC(C3)N4C3COC3)cn2)cc1)[C@@H](O)CN(Cc1c(F)cc(-c2ccn(C(F)F)n2)cc1F)NC(=O)[C@@H](NC(=O)OC)C(C)(C)C(F)(F)F)C(C)(C)C(F)(F)F [Example 50, Methyl ((5S,8S,9S,14S)-11-(4-(1-(difluoromethyl)-1H-pyrazol-3-yl)-2,6-difluorobenzyl)-16,16,16-trifluoro-9-hydroxy-15,15-dimethyl-8-(4-((5-(8-(oxetan-3-yl)-3,8-diazabicyclo[3.2.1]octan-3-yl)pyrazin-2-yl)ethynyl)benzyl)-3,6,13-trioxo-5-(1,1,1-trifluoro-2-methylpropan-2-yl)-2-oxa-4,7,11,12-tetraazahexadecan-14-yl)carbamate] | – | – | 4.31 nM | <0.11 L/H/kg | <0.18 L/H/kg
3 | COC(=O)N[C@H](C(=O)N[C@@H](Cc1ccc(C#Cc2ccc(N3CC4CCC(C3)N4S(C)(=O)=O)nc2)cc1)[C@@H](O)CN(Cc1c(F)cc(-c2cnn(C(F)F)c2)cc1F)NC(=O)[C@@H](NC(=O)OC)C(C)(C)C(F)(F)F)C(C)(C)C(F)(F)F [Example 70, Methyl ((5S,8S,9S,14S)-11-(4-(1-(difluoromethyl)-1H-pyrazol-4-yl)-2,6-difluorobenzyl)-16,16,16-trifluoro-9-hydroxy-15,15-dimethyl-8-(4-((6-(8-(methylsulfonyl)-3,8-diazabicyclo[3.2.1]octan-3-yl)pyridin-3-yl)ethynyl)benzyl)-3,6,13-trioxo-5-(1,1,1-trifluoro-2-methylpropan-2-yl)-2-oxa-4,7,11,12-tetraazahexadecan-14-yl)carbamate] | – | – | 4.79 nM | <0.11 L/H/kg | <0.18 L/H/kg
4 | COC(=O)N[C@H](C(=O)N[C@@H](Cc1ccc(-c2ccc(N3CC4CCC(C3)N4C3COC3)nc2)cc1)[C@@H](O)CN(Cc1c(F)cc(-c2ccn(C)n2)cc1F)NC(=O)[C@@H](NC(=O)OC)C(C)(C)C(F)(F)F)C(C)(C)C(F)(F)F [Example 207, Methyl ((5S,8S,9S,14S)-11-(2,6-difluoro-4-(1-methyl-1H-pyrazol-3-yl)benzyl)-16,16,16-trifluoro-9-hydroxy-15,15-dimethyl-8-(4-(6-(8-(oxetan-3-yl)-3,8-diazabicyclo[3.2.1]octan-3-yl)pyridin-3-yl)benzyl)-3,6,13-trioxo-5-(1,1,1-trifluoro-2-methylpropan-2-yl)-2-oxa-4,7,11,12-tetraazahexadecan-14-yl)carbamate] | – | – | 2.46 nM | 0.25 L/H/kg | 0.92 L/H/kg

The next lines start with results.

Row | Human Pred Cl. [1, 3] | Rat. Pred. Cl. [1, 4] | Structure (SMILES) | EC50 [2] | Human Pred Cl. ([1]; human, microsomes) | Rat. Pred. Cl. ([1]; rat, microsomes)
5 | <0.11 L/H/kg | 0.75 L/H/kg | COC(=O)N[C@H](C(=O)N[C@@H](Cc1ccc(C#Cc2cnc(N3C[C@H]4C[C@@H]3CN4C3COC3)nc2)cc1)[C@@H](O)CN(Cc1c(F)cc(-c2ccn(C3CC3)n2)cc1F)NC(=O)[C@@H](NC(=O)OC)C(C)(C)C(F)(F)F)C(C)(C)C(F)(F)F [Example 31, Methyl ((5S,8S,9S,14S)-11-(4-(1-cyclopropyl-1H-pyrazol-3-yl)-2,6-difluorobenzyl)-16,16,16-trifluoro-9-hydroxy-15,15-dimethyl-8-(4-((2-((1R,4R)-5-(oxetan-3-yl)-2,5-diazabicyclo[2.2.1]heptan-2-yl)pyrimidin-5-yl)ethynyl)benzyl)-3,6,13-trioxo-5-(1,1,1-trifluoro-2-methylpropan-2-yl)-2-oxa-4,7,11,12-tetraazahexadecan-14-yl)carbamate] | 3.06 nM | – | –
6 | <0.11 L/H/kg | 0.61 L/H/kg | COC(=O)N[C@H](C(=O)N[C@@H](Cc1ccc(C#Cc2ccc(N3CC4CCC(C3)O4)nc2)cc1)[C@@H](O)CN(Cc1c(F)cc(-c2cnn(C(F)F)c2)cc1F)NC(=O)[C@@H](NC(=O)OC)C(C)(C)C(F)(F)F)C(C)(C)C(F)(F)F [Example 68, Methyl ((5S,8S,9S,14S)-8-(4-((6-(8-oxa-3-azabicyclo[3.2.1]octan-3-yl)pyridin-3-yl)ethynyl)benzyl)-11-(4-(1-(difluoromethyl)-1H-pyrazol-4-yl)-2,6-difluorobenzyl)-16,16,16-trifluoro-9-hydroxy-15,15-dimethyl-3,6,13-trioxo-5-(1,1,1-trifluoro-2-methylpropan-2-yl)-2-oxa-4,7,11,12-tetraazahexadecan-14-yl)carbamate] | 7.25 nM | – | –
7 | 0.56 L/H/kg | 3.2 L/H/kg | COC(=O)N[C@H](C(=O)N[C@@H](Cc1ccc(C#Cc2ccc(N3C[C@@H]4CN(C5COC5)C[C@@H]4C3)nc2)cc1)[C@@H](O)CN(Cc1c(F)cc(-c2ccn(C(F)F)n2)cc1F)NC(=O)[C@@H](NC(=O)OC)C(C)(C)C(F)(F)F)C(C)(C)C(F)(F)F [Example 165, Methyl ((5S,8S,9S,14S)-11-(4-(1-(difluoromethyl)-1H-pyrazol-3-yl)-2,6-difluorobenzyl)-16,16,16-trifluoro-9-hydroxy-15,15-dimethyl-8-(4-((6-((3aR,6aS)-5-(oxetan-3-yl)hexahydropyrrolo[3,4-c]pyrrol-2(1H)-yl)pyridin-3-yl)ethynyl)benzyl)-3,6,13-trioxo-5-(1,1,1-trifluoro-2-methylpropan-2-yl)-2-oxa-4,7,11,12-tetraazahexadecan-14-yl)carbamate] | 4.05 nM | – | –
8 | 0.12 L/H/kg | <0.18 L/H/kg | COC(=O)N[C@H](C(=O)N[C@@H](Cc1ccc(C#Cc2ccc(N3CCN(C4CCOCC4)CC3)nc2)cc1)[C@@H](O)CN(Cc1c(F)cc(-c2cnn(C(F)F)c2)cc1F)NC(=O)[C@@H](NC(=O)OC)C(C)(C)C(F)(F)F)C(C)(C)C(F)(F)F [Example 115, Methyl ((5S,8S,9S,14S)-11-(4-(1-(difluoromethyl)-1H-pyrazol-4-yl)-2,6-difluorobenzyl)-16,16,16-trifluoro-9-hydroxy-15,15-dimethyl-3,6,13-trioxo-8-(4-((6-(4-(tetrahydro-2H-pyran-4-yl)piperazin-1-yl)pyridin-3-yl)ethynyl)benzyl)-5-(1,1,1-trifluoro-2-methylpropan-2-yl)-2-oxa-4,7,11,12-tetraazahexadecan-14-yl)carbamate] | 3.19 nM | – | –
